The values below come from US12054447B2, “PCNA inhibitors” (City of Hope, priority 2015, dated 2024).

Data set [1] can be described thus: Pharmacokinetics (PK) of AOH1160 in animals. Format: in vivo, Rat. The note with it: for AUC(0-inf) / Cmax / Tmax / half-life: rat, in vivo, po, 20 mg/kg, Rat PO 20 mg/kg.
The test system of data set [2] is CAKI-1. Description: NCI-60 panel test. Format: cell-based. The note with it: Homo sapiens; CAKI-1, NCI-60 5-dose study. The gist of the method:
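The effect of AOH1160 on cancer-cell growth is tested at 5 doses across the full panel, and a Log IC50 is derived for every individual line.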

Data set [3] relates to neuroblastoma cells (SH-SY5Y and SK-N-BE(2)c). Description: Cell cycle analysis. Type of data set: cell-based. How it is done:
(§1) Cells were seeded at 1×10^5/ml in a 6-well plate. Once attached overnight, cells were treated with or without AOH1160 for 6 or 24 h. After being fixed in 60% ethanol and stained with propidium iodide (PI), cells were analyzed by flow cytometry to determine the cellular PI fluorescence intensity. The flow cytometry data were analyzed by the FlowJo program to model various cell populations.

The test system of data set [4] is SK-N-DZ. In words: Clonogenic assay with cisplatin. The note with it: cisplatin with or without 500 nM AOH1160 for 18 h, 3 weeks. Format: cell-based, human. The procedure: Three hundred human SK-N-DZ NB cells were seeded onto a 60-mm tissue culture dish. Once attached overnight, cells were treated with or without various concentrations of cisplatin in the presence or absence of 500 nM of AOH1160 for 18 h. Cells were washed twice with growth medium and were cultured in fresh medium for 3 weeks to allow surviving cells to form colonies. The medium was changed every 3 days throughout the experiment. The colonies formed under each treatment conditions were counted after being stained with 0.5% crystal violet.

Data set [5] concerns small cell lung cancer cells. In words: Killing of small cell lung cancer cells. The note with it: FIG. 14B. Type of data set: cell-based.
Data set [6] deals with human TRβ (Homo sapiens, UniProt P10828). In words: Human thyroid hormone receptor beta (TRβ) reporter assay. Format: cell-based. The note with it: TRβ reporter cells, 24 h. An excerpt: Reporter cells constitutively expressing human TRβ and containing a luciferase reporter gene functionally linked to a TRβ-responsive promoter were purchased from Indigo Biosciences (State College, PA). […] The effect of each compound on TRβ activity was examined by measuring the luciferase reporter gene expression according to the manufacturer's instruction.
Chain of human TRβ (P10828 whole entry): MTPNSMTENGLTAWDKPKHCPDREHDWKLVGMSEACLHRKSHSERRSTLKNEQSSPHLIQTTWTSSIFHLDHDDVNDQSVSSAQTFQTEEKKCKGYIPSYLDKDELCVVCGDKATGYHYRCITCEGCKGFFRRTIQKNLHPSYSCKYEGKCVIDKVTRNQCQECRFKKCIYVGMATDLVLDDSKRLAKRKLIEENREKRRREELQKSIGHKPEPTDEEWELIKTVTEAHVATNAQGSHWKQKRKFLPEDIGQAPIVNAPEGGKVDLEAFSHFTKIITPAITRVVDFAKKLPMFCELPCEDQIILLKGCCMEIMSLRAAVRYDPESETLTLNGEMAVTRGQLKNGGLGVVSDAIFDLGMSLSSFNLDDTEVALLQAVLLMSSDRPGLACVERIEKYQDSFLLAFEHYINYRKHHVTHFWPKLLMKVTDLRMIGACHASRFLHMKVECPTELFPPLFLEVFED
On the technique in general: Reporter assays use an easily measured gene product as a stand-in for the process of interest.

Data set [7] deals with 7SM0032. In words: Cell cycle analysis (PI, flow cytometry). Type of data set: cell-based, human. The note with it: for cell cycle effect on normal cells: 7SM0032. The procedure: as §1
For orientation: In flow cytometry, cells or beads pass a laser one at a time.

Data set [8] has as its system SK-N-BE(2)c derived xenograft tumors. The note with it: 30 mg/kg twice daily (BID) by oral gavages, vs vehicle.
Data set [9] concerns HR-mediated DSB repair in DR-GFP cells. In words: DSB repair assay, DR-GFP reporter. Format: cell-based. The note with it: I-SceI-induced DSB, GFP-positive cells by flow cytometry. How it is done: The human NB cell lines, SK-N-DZ, SK-N-BE(2)c, SK-N-AS, and LAN-5 obtained from the American Type Culture Collection (Rockville, MD), were cultured in DMEM with 10% fetal bovine serum (FBS), 100 units/ml penicillin, and 100 μg/ml streptomycin in the presence of 5% CO2 at 37° C. Human PBMCs from a healthy donor were purchased from Sanguine BioSciences (Valencia, CA) and grown in RPMI1640 with 10% FBS, 100 units/ml penicillin, 100 μg/ml streptomycin, and 10 ng/ml IL-2 in the presence of 5% CO2 at 37° C. Human embryonic progenitor cell line 7SM0032 was acquired from Millipore (Billerica, MA) and grown in the hEPM-1 Media Kit purchased from the same company. The plasmid pCBASce expresses the rare cutting I-SceI meganuclease. The U20S-derived cell lines, DR-GFP and EJ5-GFP, each contain a stably transfected reporter gene for DSB repair mediated by HR and end joining (EJ), respectively. These cell lines were cultured in DMEM medium with 10% FBS at 37° C. in the presence of 5% CO2.
DR-GFP and EJ5-GFP cell lines were seeded at 2.5×10^4 cells/cm^2 in a 12-well plate. […] The HR and EJ-mediated DSB repair, indicated by the restoration of a functional GFP gene in the respective cell lines, were quantified by measuring the relative abundance of GFP-positive cells by flow cytometry 3 days after transfection.

The subject of data set [10] is NB cell lines. In words: Cell viability assay on NB cell lines. The note with it: for concentrations that selectively kill neuroblastoma cells: FIG. 14A. Type of data set: cell-based, human. How it is done:
(§2) To measure the effect of the compounds on cell growth, cells were seeded at 3×10^4/ml into a 96-well plate. Once attached, cells were treated with various concentrations of AOH1160 for 72 h. Cell growth was measured by the CellTitor-Glo assay (Promega, Madison, WI) according to the manufacturer's instructions. To measure apoptosis, cells were seeded at 1×10^5/ml onto a chamber slide. Once attached, cells were treated with the 500 nM AOH1160 for 24 h. Cells were fixed and analyzed by a TUNEL assay using the TMR red in situ cell death detection kit (Roche Diagnostics, Indianapolis, IN).
To identify small molecule compounds that target the PCNA and FEN1 interface, we started with known crystal structures of the PCNA/FEN1 complex that are available from the RCSB protein database. To improve the likelihood of identifying novel small molecules that specifically target caPCNA, we focused our virtual screen on the binding pocket in PCNA delineated by residues L126 and Y133 and screened databases consisting of more than 6.8 million chemical structures available at the AMRI. A set of 57 compounds identified by the virtual screen was acquired and further tested in a cell viability assay. A compound (AOH39) was selected for further development due to its anti-cancer activity and selectivity.

For data set [11], the system named is non-malignant cells. In words: Toxicity to non-malignant cells. Format: cell-based. How it is done:
as §2
To improve the anti-tumor potency of the compound while preserving its favorable selectivity, a series of compounds were synthesized and tested. […] The combined improvements in potency and selectivity lead to a significant improvement in the therapeutic window (FIG. 1). AOH1160 was tested in a broad range of non-malignant cells, including human primary mammary epithelial and small airway epithelial cells, and no significant toxicity was found in these cells up to a concentration of 10 μM.

Some results are limits rather than exact numbers.

For `O=C(CNC(=O)c1cccc2ccccc12)Nc1ccccc1Oc1ccccc1` [AOH1160], the oral availability result in data set [1] (animals) is “orally available”. In data set [1] (BID dosing), the AUC(0-inf) (in general, total exposure, with the tail of the curve extrapolated) is 429 ± 195 ng·h/mL; the concentration peaked (Cmax) at 73 ± 23 ng/mL; the Tmax (as a rule, the time from dosing to the highest level) was 6 h; the half-life (usually the time in which the quantity being followed falls by half) is 4.3 ± 1.7 h. Further, in [1] (Single dosing), the AUC(0-inf) was 383 ± 110 ng·h/mL, the concentration peaked (Cmax) at 50 ± 31 ng/mL, the Tmax stood at 3.3 ± 2.3 h and the half-life is 3.8 ± 31 h. Moreover, halving of growth in [2] (GI50) required 355 nM. The cell cycle effect entry in [3] is reported as “caused S/G2 cell cycle arrest”. Further, the “sensitivity to cisplatin (colony formation)” value in [4] is “more sensitive to cisplatin treatment in the presence of AOH1160 than in its absence”. In addition, the “concentrations that selectively kill small cell lung cancer cells” value in data set [5] is given as “below micromolar concentrations”. Also, in [6], the “thyroid hormone activity in a TR reporter assay” value is recorded as “did not show any thyroid hormone activity”. Moreover, the “cell cycle effect on normal cells” value in [7] is listed as “exerted little effect on normal cells”. The cell cycle effect result in data set [7] (7SM0032 cells, 500 nM) is “doesn't significantly change the cell cycle profiles”. For the same molecule, in data set [8], the tumor burden result is on record as “significantly reduced tumor burden”. Moreover, the “HR-mediated DSB repair” value in data set [9] was “blocks DNA repair in DR-GFP”. Moreover, the “concentrations that selectively kill neuroblastoma cells” value in data set [10] was “below micromolar concentrations”. In addition, the IC50 (usually the concentration at which inhibition is half-maximal) in data set [10] (Homo sapiens, multiple NB cell lines, read-out: IC50 range over NB cell lines) is 180 to 220 nM. For the same molecule, in data set [10] (NB cells), the “increase in compound potency over AOH39 in cell viability assays” value is recorded as 6-7 fold. The “toxicity to non-malignant cells compared with AOH39” value in data set [11] (PBMC and 7SM0032 cells) is “less toxic to non-malignant PBMC and 7SM0032 cells than AOH39”. Besides, the “concentration causing significant toxicity (none found up to)” value in data set [11] (broad range of non-malignant cells incl. human primary mammary epithelial and small airway epithelial cells) is over 10 µM.

For the molecule `COc1cccc(Oc2ccccc2NC(=O)CNC(=O)c2cccc3ccccc23)c1` [PCNA7/ AOH1996], it took 912 nM to inhibit growth in [2] by half (GI50). Further, the cell cycle effect entry in data set [3] is given as “caused S/G2 cell cycle arrest”. The “concentrations that selectively kill small cell lung cancer cells” value in data set [5] is “below micromolar concentrations”. Moreover, the “cell cycle effect on normal cells” value in data set [7] is reported as “exerted little effect on normal cells”. In [10], the “concentrations that selectively kill neuroblastoma cells” value is given as “below micromolar concentrations”. Also, in data set [11] (neural crest stem cells (7SM0032), hSAEC, PBMCs), the “toxicity to non-malignant cells” value was “minimal toxicity to non-malignant cells”.
